Measured values from patent US9809623B2, “α4β7 peptide monomer and dimer antagonists” (Protagonist Therapeutics, Inc., priority 2014, dated 2017).
Read-outs that look alike come from different tables or passages of the source. Numbered stars: 1 amine (or outer) side, 2 acyl side, 3 side chain; on linkers, the order of the positions; unused ones are H or OH. Bridge positions count the residues as written; N and C are the ends. Square brackets hold non-standard residues; d marks the D form. Peptide text beside a SMILES is read from it. I, II: the chains in the order shown. ξ: configuration not given here. X2 = O=C(CCOCCOCCOCCOCCOCCOCCOCCOCCOCCOCCOCCOCCOCCOCCOCCOCCOCCOCCOCCOCCOCCOCCOCCOCCOCCC(=O)[*:2])[*:1]; Phe(4-tBu) = CC(C)(C)c1ccc(C[C@H](N)C(=O)O)cc1; 1Nal = N[C@@H](Cc1cccc2ccccc12)C(=O)O; 2Nal = N[C@@H](Cc1ccc2ccccc2c1)C(=O)O; Diglycolyl = O=C(COCC(=O)[*:2])[*:1]; NMeR = CN[C@@H](CCCNC(=N)N)C(=O)O; β3hE = N[C@@H](CCC(=O)O)CC(=O)O; Thr(3ξ) = CC(O)[C@H](N)C(=O)O; NMeK = CN[C@@H](CCCCN)C(=O)O; Pen = CC(C)(S)[C@H](N)C(=O)O; dNMeK = CN[C@H](CCCCN)C(=O)O

Assays:
rh integrin α4β7 = biological target: T1, rh integrin α4β7 (Homo sapiens, UniProt P13612+P26010); assay: α4β7-MAdCAM Competition ELISA; assay type: binding
T1 construct: purchased R&D Systems 5397-A30
Procedure, shortened: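 Recombinant human α4β7 was captured on nickel plates at 800 ng/well. Peptide in 3-fold serial dilution (final top 10 μM) competed with MAdCAM-1 (final 10 nM) for 1 h at room temperature in 50 mM Tris pH 7.6, 150 mM NaCl, 1 mM MnCl2 or MgCl2. Bound MAdCAM-1 was detected with anti-human IgG1-HRP/TMB at A450.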

α4β7 = α4β7 (Homo sapiens, UniProt P13612+P26010); assay: α4β7-MAdCAM Cell Adhesion Assay (RPMI 8866 human cells); assay type: cell-based; parameters: host or cells: RPMI 8866 human B lymphoblastoid cells
Procedure, shortened: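 Washed RPMI 8866 cells (200,000/well) in DMEM with 0.1% BSA, 10 mM HEPES pH 7, 1 mM MnCl2 adhered to rh MAdCAM-1/Fc-coated wells with serially diluted peptides, 30-45 min at 37 °C. After three washes, bound cells quantified by MTT, A570, cell-free background subtracted for dose response.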

[1] = Simulated Intestinal Fluid (SIF) Stability Assay; assay type: in vitro ADME, porcine; conditions: pig, simulated intestinal fluid (SIF) with 1% porcine pancreatin
Procedure, shortened: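 Peptides (22 μM final) incubated at 37 °C in FASSIF (pH 6.5) with 1% porcine pancreatin; aliquots quenched at various times and analyzed by LC-MS/MS against internal standard. Half-life from first-order exponential decay fit of percent remaining.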

[2] = Table 3-B, Potency (α4β7), range classes, read-out: α4β7 ELISA IC50
[3] = pH 6.5, Table 3-B, > means experiment was stopped at that time and half life was not reached, read-out: Stabilty SIF t1/2
[4] = Table 3-B, Potency (α4β7), range classes, read-out: α4β7 cell (Hu) IC50
[5] = Table 4-B, read-out: ELISA α4β7 IC50
[6] = Table 4-B, read-out: Cell Adhesion α4β7 IC50

Sequence of α4β7 (P13612 34-1032): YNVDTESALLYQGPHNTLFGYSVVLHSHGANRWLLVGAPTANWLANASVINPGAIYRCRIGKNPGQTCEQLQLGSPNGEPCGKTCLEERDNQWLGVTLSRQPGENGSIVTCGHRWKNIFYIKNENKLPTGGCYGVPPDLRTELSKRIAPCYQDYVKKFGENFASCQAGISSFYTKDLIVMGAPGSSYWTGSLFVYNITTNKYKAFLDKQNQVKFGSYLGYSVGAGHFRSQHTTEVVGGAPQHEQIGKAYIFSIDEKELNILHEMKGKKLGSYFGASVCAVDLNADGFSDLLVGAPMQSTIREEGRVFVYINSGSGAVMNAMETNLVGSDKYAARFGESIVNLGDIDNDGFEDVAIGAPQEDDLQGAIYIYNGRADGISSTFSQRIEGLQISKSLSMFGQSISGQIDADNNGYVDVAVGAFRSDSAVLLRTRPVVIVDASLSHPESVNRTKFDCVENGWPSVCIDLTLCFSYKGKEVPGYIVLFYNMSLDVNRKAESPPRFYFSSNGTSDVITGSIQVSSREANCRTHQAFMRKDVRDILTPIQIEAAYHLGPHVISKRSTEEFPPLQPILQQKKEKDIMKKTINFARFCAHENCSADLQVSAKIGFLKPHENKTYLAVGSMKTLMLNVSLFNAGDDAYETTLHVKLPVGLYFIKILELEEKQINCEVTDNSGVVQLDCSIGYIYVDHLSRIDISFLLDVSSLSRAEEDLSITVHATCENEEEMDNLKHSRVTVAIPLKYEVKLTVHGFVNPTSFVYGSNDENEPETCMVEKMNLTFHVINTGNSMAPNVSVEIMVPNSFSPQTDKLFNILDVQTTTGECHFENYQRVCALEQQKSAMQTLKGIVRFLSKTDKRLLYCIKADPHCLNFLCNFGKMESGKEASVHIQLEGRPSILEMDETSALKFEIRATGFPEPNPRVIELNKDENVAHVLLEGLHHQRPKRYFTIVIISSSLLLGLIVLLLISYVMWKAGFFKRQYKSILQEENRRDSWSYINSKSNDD
Sequence of α4β7 (P26010 20-798): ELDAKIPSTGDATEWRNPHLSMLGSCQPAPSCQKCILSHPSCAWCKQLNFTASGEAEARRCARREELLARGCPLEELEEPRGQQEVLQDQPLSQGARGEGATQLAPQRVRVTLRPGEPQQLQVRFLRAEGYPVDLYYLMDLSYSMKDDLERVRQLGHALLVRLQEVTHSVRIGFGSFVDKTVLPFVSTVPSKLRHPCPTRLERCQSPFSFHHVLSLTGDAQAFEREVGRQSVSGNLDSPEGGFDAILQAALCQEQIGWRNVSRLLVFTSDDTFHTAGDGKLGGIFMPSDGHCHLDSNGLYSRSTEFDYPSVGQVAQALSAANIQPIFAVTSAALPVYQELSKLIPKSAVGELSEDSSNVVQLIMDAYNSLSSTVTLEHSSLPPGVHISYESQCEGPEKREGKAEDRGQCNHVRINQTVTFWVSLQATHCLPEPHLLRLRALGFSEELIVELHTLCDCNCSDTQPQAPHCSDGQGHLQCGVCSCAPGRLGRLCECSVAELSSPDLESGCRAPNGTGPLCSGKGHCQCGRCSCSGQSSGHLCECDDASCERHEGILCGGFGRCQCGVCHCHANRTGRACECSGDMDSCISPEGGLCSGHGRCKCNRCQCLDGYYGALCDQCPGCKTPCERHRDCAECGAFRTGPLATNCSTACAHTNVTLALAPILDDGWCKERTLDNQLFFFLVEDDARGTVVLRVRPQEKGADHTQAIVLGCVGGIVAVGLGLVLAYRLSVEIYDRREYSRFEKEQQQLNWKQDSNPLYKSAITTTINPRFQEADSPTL
T1 sequence (P13612 34-977 limits assumed): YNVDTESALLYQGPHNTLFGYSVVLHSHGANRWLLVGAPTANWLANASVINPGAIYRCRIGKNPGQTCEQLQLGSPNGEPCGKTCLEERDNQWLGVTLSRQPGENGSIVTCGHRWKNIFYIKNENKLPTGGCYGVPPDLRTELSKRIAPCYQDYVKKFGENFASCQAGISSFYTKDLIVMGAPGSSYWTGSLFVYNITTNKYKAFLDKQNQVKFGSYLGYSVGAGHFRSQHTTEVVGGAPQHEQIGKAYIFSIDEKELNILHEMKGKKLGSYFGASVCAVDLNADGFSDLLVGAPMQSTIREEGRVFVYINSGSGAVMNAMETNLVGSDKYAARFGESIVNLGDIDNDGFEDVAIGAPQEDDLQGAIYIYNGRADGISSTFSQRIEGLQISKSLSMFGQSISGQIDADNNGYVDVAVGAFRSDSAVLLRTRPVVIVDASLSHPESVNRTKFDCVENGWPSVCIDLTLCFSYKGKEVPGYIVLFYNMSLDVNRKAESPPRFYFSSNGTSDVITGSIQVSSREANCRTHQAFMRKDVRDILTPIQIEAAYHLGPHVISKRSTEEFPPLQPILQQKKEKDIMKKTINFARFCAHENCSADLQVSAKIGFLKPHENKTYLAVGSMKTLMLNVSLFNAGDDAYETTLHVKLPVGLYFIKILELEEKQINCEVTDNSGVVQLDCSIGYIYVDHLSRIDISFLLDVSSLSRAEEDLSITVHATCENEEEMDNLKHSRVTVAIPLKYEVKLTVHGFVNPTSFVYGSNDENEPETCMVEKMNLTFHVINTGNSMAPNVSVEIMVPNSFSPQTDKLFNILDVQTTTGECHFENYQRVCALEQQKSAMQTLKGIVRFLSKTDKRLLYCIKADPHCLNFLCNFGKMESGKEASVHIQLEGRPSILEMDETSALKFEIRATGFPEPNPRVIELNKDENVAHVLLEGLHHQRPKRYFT
T1 sequence (P26010 20-723 limits assumed): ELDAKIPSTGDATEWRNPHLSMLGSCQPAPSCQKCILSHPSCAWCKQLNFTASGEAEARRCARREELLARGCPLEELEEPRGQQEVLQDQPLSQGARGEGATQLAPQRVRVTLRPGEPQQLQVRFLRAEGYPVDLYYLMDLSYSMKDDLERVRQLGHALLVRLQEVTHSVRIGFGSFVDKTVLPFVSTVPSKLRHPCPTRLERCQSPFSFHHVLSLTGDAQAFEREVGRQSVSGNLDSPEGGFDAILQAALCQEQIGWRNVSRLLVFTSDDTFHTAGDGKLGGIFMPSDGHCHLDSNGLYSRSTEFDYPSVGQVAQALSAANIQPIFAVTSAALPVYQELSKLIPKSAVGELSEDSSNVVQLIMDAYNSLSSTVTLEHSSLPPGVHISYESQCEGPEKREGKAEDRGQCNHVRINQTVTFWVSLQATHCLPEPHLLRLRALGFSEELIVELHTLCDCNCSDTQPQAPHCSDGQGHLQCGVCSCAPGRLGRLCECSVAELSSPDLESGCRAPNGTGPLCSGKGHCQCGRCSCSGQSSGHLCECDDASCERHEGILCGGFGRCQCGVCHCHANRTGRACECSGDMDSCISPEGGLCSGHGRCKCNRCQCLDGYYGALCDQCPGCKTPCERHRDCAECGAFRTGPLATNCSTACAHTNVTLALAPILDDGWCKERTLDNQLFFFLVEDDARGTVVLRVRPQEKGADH

| SMILES | IC50 (rh integrin α4β7; [2]) [nM] | half-life at 22 μM [1, 3] [h] | IC50 (α4β7; [4]) [nM] | IC50 (rh integrin α4β7; [5]) [nM] | further results |
| --- | --- | --- | --- | --- | --- |
| CC(=O)N[C@@H]1C(=O)N(C)[C@@H](CCCNC(=N)N)C(=O)N[C@@H](CO)C(=O)N[C@@H](CC(=O)O)C(=O)N[C@@H](C(C)O)C(=O)N[C@@H](CC(C)C)C(=O)N[C@H](C(=O)N[C@@H](Cc2ccc(C(C)(C)C)cc2)C(=O)N[C@@H](CCC(=O)O)CC(=O)N[C@H](CCCCNC(=O)COCC(=O)NCCCC[C@@H](NC(=O)C[C@H](CCC(=O)O)NC(=O)[C@H](Cc2ccc(C(C)(C)C)cc2)NC(=O)[C@H]2NC(=O)[C@H](CC(C)C)NC(=O)[C@H](C(C)O)NC(=O)[C@H](CC(=O)O)NC(=O)[C@H](CO)NC(=O)[C@H](CCCNC(=N)N)N(C)C(=O)[C@@H](NC(C)=O)C(C)(C)SSC2(C)C)C(N)=O)C(N)=O)C(C)(C)SSC1(C)C (stereo partly drawn) [Peptide X, [Ac-Pen-(N-Me-Arg)-Ser-Asp-Thr-Leu-Pen-(Phe(4-tBu))-(β-homoGlu)-(D-Lys)]2-DIG] (I: Ac-[Pen][NMeR]SD[Thr(3ξ)]L[Pen][Phe(4-tBu)][β3hE][dK]-NH2 / II: Ac-[Pen][NMeR]SD[Thr(3ξ)]L[Pen][Phe(4-tBu)][β3hE][dK]-NH2; disulfide I:1-I:7, II:1-II:7; linker I:10-II:10 via Diglycolyl) | – | – | – | – | IC50 (rh integrin α4β7; 1 mM Mg^2+ binding conditions, read-out: IC50 for α4β7, competition ELISA): 3 nM; IC50 (α4β7; human B cell lymphoblastoid RPMI8866, read-out: IC50 for blocking adhesion of RPMI8866 cell line to MAdCAM-1): 0.72 nM |
| CC(=O)N[C@@H]1C(=O)N(C)[C@@H](CCCNC(=N)N)C(=O)N[C@@H](CO)C(=O)N[C@@H](CC(=O)O)C(=O)N[C@@H]([C@@H](C)O)C(=O)N[C@@H](CC(C)C)C(=O)N[C@H](C(=O)N[C@@H](Cc2cccc3ccccc23)C(=O)N[C@@H](CCC(=O)O)C(=O)N(C)[C@H](CCCCNC(=O)COCC(=O)NCCCC[C@H](C(N)=O)N(C)C(=O)[C@H](CCC(=O)O)NC(=O)[C@H](Cc2cccc3ccccc23)NC(=O)[C@H]2NC(=O)[C@H](CC(C)C)NC(=O)[C@H]([C@@H](C)O)NC(=O)[C@H](CC(=O)O)NC(=O)[C@H](CO)NC(=O)[C@H](CCCNC(=N)N)N(C)C(=O)[C@@H](NC(C)=O)C(C)(C)SSC2(C)C)C(N)=O)C(C)(C)SSC1(C)C [compound 44] (I: Ac-[Pen][NMeR]SDTL[Pen][1Nal]E[dNMeK]-NH2 / II: Ac-[Pen][NMeR]SDTL[Pen][1Nal]E[dNMeK]-NH2; disulfide I:1-I:7, II:1-II:7; linker I:10-II:10 via Diglycolyl) | < 10 | > 3 | < 10 | – | – |
| CC(=O)N[C@@H]1C(=O)N(C)[C@@H](CCCNC(=N)N)C(=O)N[C@@H](CO)C(=O)N[C@@H](CC(=O)O)C(=O)N[C@@H]([C@@H](C)O)C(=O)N[C@@H](CC(C)C)C(=O)N[C@H](C(=O)N[C@@H](Cc2c[nH]c3ccccc23)C(=O)N[C@@H](CCC(=O)O)C(=O)N[C@H](CCCCNC(=O)COCC(=O)NCCCC[C@@H](NC(=O)[C@H](CCC(=O)O)NC(=O)[C@H](Cc2c[nH]c3ccccc23)NC(=O)[C@H]2NC(=O)[C@H](CC(C)C)NC(=O)[C@H]([C@@H](C)O)NC(=O)[C@H](CC(=O)O)NC(=O)[C@H](CO)NC(=O)[C@H](CCCNC(=N)N)N(C)C(=O)[C@@H](NC(C)=O)C(C)(C)SSC2(C)C)C(N)=O)C(N)=O)C(C)(C)SSC1(C)C [compound 67] (I: Ac-[Pen][NMeR]SDTL[Pen]WE[dK]-NH2 / II: Ac-[Pen][NMeR]SDTL[Pen]WE[dK]-NH2; disulfide I:1-I:7, II:1-II:7; linker I:10-II:10 via Diglycolyl) | < 10 | 2.02 | < 10 | – | – |
| CC(=O)N[C@@H]1C(=O)N(C)[C@@H](CCCNC(=N)N)C(=O)N[C@@H](CO)C(=O)N[C@@H](CC(=O)O)C(=O)N[C@@H]([C@@H](C)O)C(=O)N[C@@H](CC(C)C)C(=O)N[C@H](C(=O)N[C@@H](Cc2c[nH]c3ccccc23)C(=O)N[C@H](CCC(=O)O)C(=O)N[C@H](CCCCNC(=O)COCC(=O)NCCCC[C@@H](NC(=O)[C@@H](CCC(=O)O)NC(=O)[C@H](Cc2c[nH]c3ccccc23)NC(=O)[C@H]2NC(=O)[C@H](CC(C)C)NC(=O)[C@H]([C@@H](C)O)NC(=O)[C@H](CC(=O)O)NC(=O)[C@H](CO)NC(=O)[C@H](CCCNC(=N)N)N(C)C(=O)[C@@H](NC(C)=O)C(C)(C)SSC2(C)C)C(N)=O)C(N)=O)C(C)(C)SSC1(C)C [compound 68] (I: Ac-[Pen][NMeR]SDTL[Pen]W[dE][dK]-NH2 / II: Ac-[Pen][NMeR]SDTL[Pen]W[dE][dK]-NH2; disulfide I:1-I:7, II:1-II:7; linker I:10-II:10 via Diglycolyl) | < 10 | > 5 | 25 to 50 | – | – |
| CC(=O)N[C@@H]1C(=O)N(C)[C@@H](CCCNC(=N)N)C(=O)N[C@@H](CO)C(=O)N[C@@H](CC(=O)O)C(=O)N[C@@H]([C@@H](C)O)C(=O)N[C@@H](CC(C)C)C(=O)N[C@H](C(=O)N[C@@H](Cc2c[nH]c3ccccc23)C(=O)N[C@@H](CCC(=O)O)C(=O)N[C@H](CCCCNC(=O)COCC(=O)NCCCC[C@@H](NC(=O)[C@H](CCC(=O)O)NC(=O)[C@H](Cc2c[nH]c3ccccc23)NC(=O)[C@H]2NC(=O)[C@H](CC(C)C)NC(=O)[C@H]([C@@H](C)O)NC(=O)[C@H](CC(=O)O)NC(=O)[C@H](CO)NC(=O)[C@H](CCCNC(=N)N)N(C)C(=O)[C@@H](NC(C)=O)C(C)(C)SSC2(C)C)C(=O)O)C(=O)O)C(C)(C)SSC1(C)C [compound 78] (I: Ac-[Pen][NMeR]SDTL[Pen]WE[dK]-OH / II: Ac-[Pen][NMeR]SDTL[Pen]WE[dK]-OH; disulfide I:1-I:7, II:1-II:7; linker I:10-II:10 via Diglycolyl) | < 10 | – | < 10 | – | – |
| CC(=O)N[C@@H]1C(=O)N(C)[C@@H](CCCNC(=N)N)C(=O)N[C@@H](CO)C(=O)N[C@@H](CC(=O)O)C(=O)N[C@@H]([C@@H](C)O)C(=O)N[C@@H](CC(C)C)C(=O)N[C@H](C(=O)N[C@@H](Cc2cccc3ccccc23)C(=O)N[C@@H](CCC(=O)O)CC(=O)N(C)[C@@H](CCCCNC(=O)COCC(=O)NCCCC[C@@H](C(N)=O)N(C)C(=O)C[C@H](CCC(=O)O)NC(=O)[C@H](Cc2cccc3ccccc23)NC(=O)[C@H]2NC(=O)[C@H](CC(C)C)NC(=O)[C@H]([C@@H](C)O)NC(=O)[C@H](CC(=O)O)NC(=O)[C@H](CO)NC(=O)[C@H](CCCNC(=N)N)N(C)C(=O)[C@@H](NC(C)=O)C(C)(C)SSC2(C)C)C(N)=O)C(C)(C)SSC1(C)C [compound 142] (I: Ac-[Pen][NMeR]SDTL[Pen][1Nal][β3hE][NMeK]-NH2 / II: Ac-[Pen][NMeR]SDTL[Pen][1Nal][β3hE][NMeK]-NH2; disulfide I:1-I:7, II:1-II:7; linker I:10-II:10 via Diglycolyl) | < 10 | – | < 10 | – | – |
| CC(=O)N[C@H]1CSSC[C@@H](C(=O)NCC(=O)N[C@@H](CCC(=O)O)C(=O)N[C@@H](CCCCNC(=O)CCOCCOCCOCCOCCOCCOCCOCCOCCOCCOCCOCCOCCOCCOCCOCCOCCOCCOCCOCCOCCOCCOCCOCCOCCOCCC(=O)NCCCC[C@H](NC(=O)[C@H](CCC(=O)O)NC(=O)CNC(=O)[C@@H]2CSSC[C@H](NC(C)=O)C(=O)N[C@@H](CCCNC(=N)N)C(=O)N[C@@H](CO)C(=O)N[C@@H](CC(=O)O)C(=O)N[C@@H]([C@@H](C)O)C(=O)N[C@@H](CC(C)C)C(=O)N2)C(N)=O)C(N)=O)NC(=O)[C@H](CC(C)C)NC(=O)[C@H]([C@@H](C)O)NC(=O)[C@H](CC(=O)O)NC(=O)[C@H](CO)NC(=O)[C@H](CCCNC(=N)N)NC1=O [compound 197, (Ac-C-R-S-D-T-L-C-G-E-K-NH2)2-PEG25] (I: Ac-CRSDTLCGEK-NH2 / II: Ac-CRSDTLCGEK-NH2; disulfide I:1-I:7, II:1-II:7; linker I:10-II:10 via X2) | – | – | – | 36 | IC50 (α4β7; [6]): 301 nM |
| CC(=O)N[C@H]1CSSC[C@@H](C(=O)NCC(=O)N[C@@H](CCC(=O)O)C(N)=O)NC(=O)[C@H](CC(C)C)NC(=O)[C@H]([C@@H](C)O)NC(=O)[C@H](CC(=O)O)NC(=O)[C@H](CO)NC(=O)[C@H](CCCNC(=N)N)N(C)C1=O [compound 198, Ac-C-N-Me-R-S-D-T-L-C-G-E-NH2] (Ac-C[NMeR]SDTLCGE-NH2; disulfide 1-7) | – | – | – | 20 | IC50 (α4β7; [6]): 1120 nM |
| CC(=O)N[C@@H]1C(=O)N(C)[C@@H](CCCNC(=N)N)C(=O)N[C@@H](CO)C(=O)N[C@@H](CC(=O)O)C(=O)N[C@@H]([C@@H](C)O)C(=O)N[C@@H](CC(C)C)C(=O)N[C@H](C(=O)N[C@@H](Cc2ccc3ccccc3c2)C(=O)N[C@@H](CCC(=O)O)C(=O)N[C@H](CCCCN)C(N)=O)C(C)(C)SSC1(C)C [compound 210, Ac-Pen-N-Me-R-S-D-T-L-Pen-2-Nal-E-k-NH2] (Ac-[Pen][NMeR]SDTL[Pen][2Nal]E[dK]-NH2; disulfide 1-7) | – | – | – | 11 | half-life at 22 μM ([1]; pH 6.5, Table 4-C, t1/2, > means assay stopped at that time, read-out: SIF (porcine) Min): > 5 h |
